Reference: paper PMC10329651, “ATPase activity of DFCP1 controls selective autophagy” (Nature Communications, 2023)

Legend:
DFCP1-FL = molecular target: T1, DFCP1-FL (Homo sapiens, UniProt Q9HBF4); assay: malachite green phosphate release (Biomol Green); type: biochemical; details: 0.5 mM ATP, 10 mM MgCl2, 10 µM ZnCl2, pH 7.5, 37 °C, 30 min; with and without liposomes
T1 construct: gene ZFYVE1; full length, His6-tagged, Sf9 baculovirus
T1 sequence (Q9HBF4 1-777): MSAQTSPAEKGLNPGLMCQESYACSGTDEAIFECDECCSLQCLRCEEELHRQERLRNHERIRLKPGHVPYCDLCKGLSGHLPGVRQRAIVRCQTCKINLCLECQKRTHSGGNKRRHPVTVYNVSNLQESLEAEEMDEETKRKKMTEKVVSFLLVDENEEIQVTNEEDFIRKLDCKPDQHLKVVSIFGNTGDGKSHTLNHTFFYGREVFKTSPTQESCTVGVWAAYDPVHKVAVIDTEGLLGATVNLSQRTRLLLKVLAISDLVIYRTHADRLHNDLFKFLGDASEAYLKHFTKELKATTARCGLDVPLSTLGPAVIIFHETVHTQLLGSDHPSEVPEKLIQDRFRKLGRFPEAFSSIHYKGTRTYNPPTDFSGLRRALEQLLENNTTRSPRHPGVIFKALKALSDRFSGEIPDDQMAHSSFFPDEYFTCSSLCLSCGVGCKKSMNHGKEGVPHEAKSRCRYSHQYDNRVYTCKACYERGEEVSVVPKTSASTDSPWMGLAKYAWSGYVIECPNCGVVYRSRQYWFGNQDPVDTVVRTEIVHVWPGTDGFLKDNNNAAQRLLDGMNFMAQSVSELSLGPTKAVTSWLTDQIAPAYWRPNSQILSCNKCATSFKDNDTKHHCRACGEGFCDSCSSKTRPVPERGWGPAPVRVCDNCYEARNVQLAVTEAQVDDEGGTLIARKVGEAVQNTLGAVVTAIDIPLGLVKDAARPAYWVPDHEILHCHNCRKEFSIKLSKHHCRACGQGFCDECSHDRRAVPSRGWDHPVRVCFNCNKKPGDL

DFCP1 WT (aa 1–410) = molecular target: T2, DFCP1 WT (aa 1–410) (Homo sapiens, UniProt Q9HBF4); assay: size exclusion chromatography, nucleotide-dependent dimerization; type: binding; details: 400 µM nucleotide, 50 mM MgCl2; non-hydrolysable ATP analogue
T2 construct: gene ZFYVE1; N-terminal ATPase domain, aa 1-410, His6-MBP fusion (pET-His6-MBP-TEV-LIC, E. coli Rosetta2(DE3))
T2 sequence (Q9HBF4 1-410): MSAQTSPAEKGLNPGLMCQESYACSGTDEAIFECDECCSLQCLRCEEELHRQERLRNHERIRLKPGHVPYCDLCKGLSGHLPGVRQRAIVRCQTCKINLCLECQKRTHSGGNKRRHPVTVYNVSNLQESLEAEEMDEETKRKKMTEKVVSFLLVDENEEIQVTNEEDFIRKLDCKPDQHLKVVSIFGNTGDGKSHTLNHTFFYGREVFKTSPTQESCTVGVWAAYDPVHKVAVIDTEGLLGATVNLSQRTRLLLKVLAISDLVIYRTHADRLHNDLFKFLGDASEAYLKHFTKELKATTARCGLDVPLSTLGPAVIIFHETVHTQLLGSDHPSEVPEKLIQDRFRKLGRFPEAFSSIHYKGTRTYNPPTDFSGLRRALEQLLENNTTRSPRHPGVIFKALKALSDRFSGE

[1] = molecular target: the molecule itself; assay: SEC; protein loaded with 400 µM ATPγS for 20 min at RT in exchange buffer (50 mM Tris, 150 mM NaCl, 50 mM MgCl2, 10% glycerol, 1 mM TCEP); Superdex 200 Increase 10/300 GL, isocratic elution at 4 °C, 0.25 ml/min; molecular weights relative to a Bio-Rad gel filtration standard

Nc1ncnc2c1ncn2[C@@H]1O[C@H](COP(=O)(O)OP(=O)(O)OP(=O)(O)O)[C@@H](O)[C@H]1O [ATP]
malachite green phosphate release (Biomol Green) (DFCP1-FL): Addition of liposomes to purified full-length DFCP1 resulted in a modest, but significant increase

Nc1ncnc2c1ncn2[C@@H]1O[C@H](COP(=O)(O)OP(=O)(O)OP(O)(O)=S)[C@@H](O)[C@H]1O [ATPγS]
size exclusion chromatography, nucleotide-dependent dimerization (DFCP1 WT (aa 1–410)): ADP-bound DFCP1 migrated as a monomer, ATPγS-loaded DFCP1 migrated as dimer

B1: His6-MBP-DFCP1 WT (aa 1-410) (domain or fragment, UniProt Q9HBF4 1-410, looked up)
chain: T2 sequence (Q9HBF4 1-410)
notes: Loaded with ADP or ATPγS before size exclusion chromatography; dimer with ATPγS, monomer with ADP; The vector has a TEV site, but no cleavage is described; also called DFCP1 N-terminus; DFCP1 ATPase domain; not shown: His6, N-terminal, kept; MBP, N-terminal, kept
stoichiometry N [1]: 2
